The target in assay [1] is T1, CD73 (Homo sapiens (Human), UniProt P21589). Kind of assay: MDA-MB-231 Cell Based CD73 Activity Assay (DMEM). The conditions noted are these: MDA-MB-231-GFP cells, DMEM medium with 10% human plasma, 200 uM AMP.
Assay [2] concerns the target T1, CD73. The assay is classed as biochemical. The conditions noted are these: 1 mM NaH2PO4 in enzyme buffer, CD73 0.3 nM, AMP 15 uM.

Each structure is given as a SMILES string.

T1 sequence (P21589 27-574): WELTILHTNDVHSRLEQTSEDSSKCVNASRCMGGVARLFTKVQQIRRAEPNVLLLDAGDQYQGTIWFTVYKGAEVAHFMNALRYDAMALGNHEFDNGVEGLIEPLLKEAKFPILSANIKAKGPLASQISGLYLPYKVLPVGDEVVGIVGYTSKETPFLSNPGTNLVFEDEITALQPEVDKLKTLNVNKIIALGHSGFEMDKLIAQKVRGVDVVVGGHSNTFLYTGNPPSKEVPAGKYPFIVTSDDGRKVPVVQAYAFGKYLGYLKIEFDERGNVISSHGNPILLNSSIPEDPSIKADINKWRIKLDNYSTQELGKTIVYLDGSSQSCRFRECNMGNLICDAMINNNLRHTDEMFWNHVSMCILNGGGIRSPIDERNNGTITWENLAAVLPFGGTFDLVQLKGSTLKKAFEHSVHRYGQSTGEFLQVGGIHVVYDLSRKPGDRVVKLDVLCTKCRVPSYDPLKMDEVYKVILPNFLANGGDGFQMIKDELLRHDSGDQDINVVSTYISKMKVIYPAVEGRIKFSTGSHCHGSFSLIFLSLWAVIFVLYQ

As to `O=c1[nH]cc(-c2cc([C@H]3C[C@@H]3c3ccc4c(C(F)(F)F)nn(CC(F)(F)F)c4c3)c3nccn3n2)c(=O)[nH]1` [Example 607, 5-(8-((1S,2S)-2-(1-(2,2,2-trifluoroethyl)-3-(trifluoromethyl)-1H-indazol-6-yl)cyclopropyl)imidazo[1,2-b]pyridazin-6-yl)pyrimidine-2,4(1H,3H)-dione], the EC50 (as a rule, the concentration giving half of the maximal effect) in assay [1] came out at 0.23 nM. The midpoint of inhibition in assay [2], the IC50, lay at 0.9 nM.
For `O=c1[nH]cc(-c2cc([C@H]3C[C@@H]3c3ccc4cnn(CC(F)(F)F)c4n3)c3ncc(F)n3n2)c(=O)[nH]1` [Example 610, 5-(3-fluoro-8-((1S,2S)-2-(1-(2,2,2-trifluoroethyl)-1H-pyrazolo[3,4-b]pyridin-6-yl)cyclopropyl)imidazo[1,2-b]pyridazin-6-yl)pyrimidine-2,4(1H,3H)-dione] the same measures were 0.23 nM and 0.37 nM.
In turn, `O=c1[nH]cc(-c2cc([C@@H]3C[C@H]3c3cc4c(cn3)cnn4CC(F)(F)F)c3ncc(F)n3n2)c(=O)[nH]1` [Example 612, 5-(3-fluoro-8-((1R,2R)-2-(1-(2,2,2-trifluoroethyl)-1H-pyrazolo[4,3-c]pyridin-6-yl)cyclopropyl)imidazo[1,2-b]pyridazin-6-yl)pyrimidine-2,4(1H,3H)-dione] yielded a concentration for a half-maximal effect (EC50) in assay [1] of 1.02 nM. Further, the IC50 (commonly the concentration that gives 50% inhibition) in assay [2] was 6.06 nM.
For `CC(n1ncc2ccc([C@H]3C[C@@H]3c3cc(-c4c[nH]c(=O)[nH]c4=O)nn4ccnc34)cc21)C(F)(F)F` (stereo partly drawn) [Example 617, 5-(8-((1S,2S)-2-(1-(1,1,1-trifluoropropan-2-yl)-1H-indazol-6-yl)cyclopropyl)imidazo[1,2-b]pyridazin-6-yl)pyrimidine-2,4(1H,3H)-dione], in assay [1], the EC50 turned out to be 0.22 nM. In assay [2], this molecule came in with an IC50 of 0.78 nM.
Taken in the same sequence, the figures for `O=c1[nH]cc(-c2cc([C@H]3C[C@@H]3c3cc(F)c4cnn(CC(F)(F)F)c4c3)c3ncc(F)n3n2)c(=O)[nH]1` [Example 618, 5-(3-fluoro-8-((1S,2S)-2-(4-fluoro-1-(2,2,2-trifluoroethyl)-1H-indazol-6-yl)cyclopropyl)imidazo[1,2-b]pyridazin-6-yl)pyrimidine-2,4(1H,3H)-dione] were 0.13 nM and 0.34 nM.
The molecule `O=c1[nH]cc(-c2cc([C@H]3C[C@@H]3c3ccc4nc(C(F)(F)F)n(CC(F)(F)F)c4c3)c3nccn3n2)c(=O)[nH]1` [Example 620, 5-(8-((1S,2S)-2-(1-(2,2,2-trifluoroethyl)-2-(trifluoromethyl)-1H-benzo[d]imidazol-6-yl)cyclopropyl)imidazo[1,2-b]pyridazin-6-yl)pyrimidine-2,4(1H,3H)-dione] returned an EC50 in assay [1] of 0.07 nM. The molecule also displayed an IC50 in assay [2] of 1.22 nM.
Taken in the same sequence, the figures for `O=c1[nH]cc(-c2cc([C@H]3C[C@@H]3c3cnc4cnn(CC(F)(F)F)c4c3)c3ncc(F)n3n2)c(=O)[nH]1` [Example 628, 5-(3-fluoro-8-((1S,2S)-2-(1-(2,2,2-trifluoroethyl)-1H-pyrazolo[4,3-b]pyridin-6-yl)cyclopropyl)imidazo[1,2-b]pyridazin-6-yl)pyrimidine-2,4(1H,3H)-dione] were 0.23 nM and 0.73 nM.
Taken in the same sequence, the figures for `O=c1[nH]cc(-c2cc([C@H]3C[C@@H]3c3ccc4cnn(CC(F)(F)F)c4c3F)c3ncnn3n2)c(=O)[nH]1` [Example 629, 5-(8-((1S,2S)-2-(7-fluoro-1-(2,2,2-trifluoroethyl)-1H-indazol-6-yl)cyclopropyl)-[1,2,4]triazolo[1,5-b]pyridazin-6-yl)pyrimidine-2,4(1H,3H)-dione] were 0.05 nM and 0.2 nM.
Taken in the same sequence, the figures for `O=c1[nH]cc(-c2cc([C@H]3C[C@@H]3c3ccc(Cl)cc3)c3nccn3n2)c(=O)[nH]1` [Example 633, 5-(8-((1S,2S)-2-(4-chlorophenyl)cyclopropyl)imidazo[1,2-b]pyridazin-6-yl)pyrimidine-2,4(1H,3H)-dione] were 7.08 nM and 1.55 nM.
For `O=c1[nH]cc(-c2cc([C@@H]3C[C@H]3c3ccc(Cl)cc3)c3nccn3n2)c(=O)[nH]1` [Example 634, 5-(8-((1R,2R)-2-(4-chlorophenyl)cyclopropyl)imidazo[1,2-b]pyridazin-6-yl)pyrimidine-2,4(1H,3H)-dione], in assay [1], the EC50 came to 39 nM. Further, the IC50 in assay [2] came out at 5.19 nM.
Taken in the same sequence, the figures for `O=c1[nH]cc(-c2cc([C@H]3C[C@@H]3c3ncc(C(F)(F)F)cc3F)c3nccn3n2)c(=O)[nH]1` [Example 635, 5-(8-((1S,2S)-2-(3-fluoro-5-(trifluoromethyl)pyridin-2-yl)cyclopropyl)imidazo[1,2-b]pyridazin-6-yl)pyrimidine-2,4(1H,3H)-dione] were 2.75 nM and 2.08 nM.
For `O=c1[nH]cc(-c2cc([C@H]3C[C@@H]3c3cc4c(cn3)cnn4CC(F)(F)F)c3nccn3n2)c(=O)[nH]1` [Example 636, 5-(8-((1S,2S)-2-(1-(2,2,2-trifluoroethyl)-1H-pyrazolo[4,3-c]pyridin-6-yl)cyclopropyl)imidazo[1,2-b]pyridazin-6-yl)pyrimidine-2,4(1H,3H)-dione] the same measures were 0.13 nM and 0.34 nM.
Taken in the same sequence, the figures for `O=c1[nH]cc(-c2cc([C@H]3C[C@@H]3c3cc4c(cn3)c(C(F)(F)F)nn4CC(F)(F)F)c3nccn3n2)c(=O)[nH]1` [Example 637, 5-(8-((1S,2S)-2-(1-(2,2,2-trifluoroethyl)-3-(trifluoromethyl)-1H-pyrazolo[4,3-c]pyridin-6-yl)cyclopropyl)imidazo[1,2-b]pyridazin-6-yl)pyrimidine-2,4(1H,3H)-dione] were 0.39 nM and 2.06 nM.
In assay [1], `O=c1[nH]cc(-c2cc([C@H]3C[C@@H]3c3ccc4nc5n(c4c3)[C@H](C(F)(F)F)CC5)c3nccn3n2)c(=O)[nH]1` [Example 639, 5-(8-((1S,2S)-2-((S)-1-(trifluoromethyl)-2,3-dihydro-1H-benzo[d]pyrrolo[1,2-a]imidazol-7-yl)cyclopropyl)imidazo[1,2-b]pyridazin-6-yl)pyrimidine-2,4(1H,3H)-dione] gave an EC50 of 0.58 nM. Besides, the midpoint of inhibition in assay [2], the IC50, lay at 2.42 nM.
On to `O=c1[nH]cc(-c2cc([C@H]3C[C@@H]3c3ccc4nc5n(c4c3)[C@@H](C(F)(F)F)CC5)c3nccn3n2)c(=O)[nH]1` [Example 640, 5-(8-((1S,2S)-2-((R)-1-(trifluoromethyl)-2,3-dihydro-1H-benzo[d]pyrrolo[1,2-a]imidazol-7-yl)cyclopropyl)imidazo[1,2-b]pyridazin-6-yl)pyrimidine-2,4(1H,3H)-dione], for which, in assay [1], the EC50 amounted to 0.12 nM. Further, the IC50 in assay [2] turned out to be 1.6 nM.
In assay [1], `O=c1[nH]cc(-c2cc(N3CC4CC3C4)c3nccn3n2)c(=O)[nH]1` [Example 641, 5-(8-(2-azabicyclo[2.1.1]hexan-2-yl)imidazo[1,2-b]pyridazin-6-yl)pyrimidine-2,4(1H,3H)-dione] registered an EC50 of 207 nM. Further, it took 77.5 nM to reach half-maximal inhibition in assay [2] (IC50).
Molecule `O=c1[nH]cc(-c2cc(N3CC4CCC3C4)c3nccn3n2)c(=O)[nH]1` (stereo not shown) [Example 643, 5-(8-(2-azabicyclo[2.2.1]heptan-2-yl)imidazo[1,2-b]pyridazin-6-yl)pyrimidine-2,4(1H,3H)-dione] returned an EC50 in assay [1] of 98.9 nM. The same molecule showed an IC50 in assay [2] of 36.4 nM.
Taken in the same sequence, the figures for `O=c1[nH]cc(-c2cc(N3CC4CC4(C(F)(F)F)C3)c3nccn3n2)c(=O)[nH]1` (stereo not shown) [Example 645, 5-(8-(1-(trifluoromethyl)-3-azabicyclo[3.1.0]hexan-3-yl)imidazo[1,2-b]pyridazin-6-yl)pyrimidine-2,4(1H,3H)-dione] were 79.6 nM and 49 nM.
Taken in the same sequence, the figures for `O=c1[nH]cc(-c2cc(N3C4CCC3CC4)c3nccn3n2)c(=O)[nH]1` [Example 646, 5-(8-(7-azabicyclo[2.2.1]heptan-7-yl)imidazo[1,2-b]pyridazin-6-yl)pyrimidine-2,4(1H,3H)-dione] were 338 nM and greater than 250 nM.
`O=c1[nH]cc(-c2cc(N3CC4CCC3CC4)c3nccn3n2)c(=O)[nH]1` [Example 647, 5-(8-(2-azabicyclo[2.2.2]octan-2-yl)imidazo[1,2-b]pyridazin-6-yl)pyrimidine-2,4(1H,3H)-dione] displayed an EC50 in assay [1] of 234 nM. In addition, the IC50 in assay [2] stood at 129 nM.
`O=c1[nH]cc(-c2cc(N3C4CCCC3CC4)c3nccn3n2)c(=O)[nH]1` [Example 648, 5-(8-(8-azabicyclo[3.2.1]octan-8-yl)imidazo[1,2-b]pyridazin-6-yl)pyrimidine-2,4(1H,3H)-dione]: a half-maximal effect in assay [1] (EC50) was put at 1950 nM. In addition, in assay [2], the IC50 is greater than 250 nM.
Taken in the same sequence, the figures for `CC1(C#N)CCN(c2cc(-c3c[nH]c(=O)[nH]c3=O)nn3ccnc23)C1` (stereo not shown) [Example 649, 1-(6-(2,4-dioxo-1,2,3,4-tetrahydropyrimidin-5-yl)imidazo[1,2-b]pyridazin-8-yl)-3-methylpyrrolidine-3-carbonitrile] were 21.7 nM and 11.7 nM.
In assay [1], `O=c1[nH]cc(-c2cc(N3CC4CC(C4)C3)c3nccn3n2)c(=O)[nH]1` [Example 650, 5-(8-(3-azabicyclo[3.1.1]heptan-3-yl)imidazo[1,2-b]pyridazin-6-yl)pyrimidine-2,4(1H,3H)-dione] returned a half-maximal effective concentration (EC50) of 18.8 nM. The molecule also registered an IC50 in assay [2] of 6.86 nM.
Taken in the same sequence, the figures for `O=c1[nH]cc(-c2cc(N3CCC4CCC3C4)c3nccn3n2)c(=O)[nH]1` (stereo not shown) [Example 651, 5-(8-(2-azabicyclo[3.2.1]octan-2-yl)imidazo[1,2-b]pyridazin-6-yl)pyrimidine-2,4(1H,3H)-dione] were 480 nM and 129 nM.
For `O=c1[nH]cc(-c2cc(N3CCC(CO)(CCl)C3)c3nccn3n2)c(=O)[nH]1` (stereo not shown) [Example 652, 5-(8-(3-(chloromethyl)-3-(hydroxymethyl)pyrrolidin-1-yl)imidazo[1,2-b]pyridazin-6-yl)pyrimidine-2,4(1H,3H)-dione] the same measures were 79.6 nM and 19.6 nM.
For `O=c1[nH]cc(-c2cc(N3CCC4(COC4)C3)c3nccn3n2)c(=O)[nH]1` [Example 653, 5-(8-(2-oxa-6-azaspiro[3.4]octan-6-yl)imidazo[1,2-b]pyridazin-6-yl)pyrimidine-2,4(1H,3H)-dione] the same measures were 130 nM and 25.3 nM.

For the origin of these results see patent publication US20240043427A1 (Gilead Sciences, Inc., priority 2020, published 2024).
